According to US20200010482A1, “INHIBITORS OF BETA SECRETASE” (Janssen Pharmaceutica NV, priority 2017, published 2020):

Experiments:
[1] = target: T1, BACE1 (Homo sapiens, UniProt P56817); assay: BACE1 biochemical FRET based assay; details: recombinant BACE1 0.04 μg/ml, 20 μM substrate, 450 min, pH 5.0; for IC50: read-out: BIOCHEMICAL FRET BASED ASSAY pIC50 (converted)
T1 construct: recombinant BACE1 protein in a final concentration of 0.04 μg/ml
Source text: (§1) This assay is a Fluorescence Resonance Energy Transfer Assay (FRET) based assay. The substrate for this assay is an APP derived 13 amino acids peptide that contains the ‘Swedish’ Lys-Met/Asn-Leu mutation of the amyloid precursor protein (APP) beta-secretase cleavage site. This substrate also contains two fluorophores: (7-methoxycoumarin-4-yl) acetic acid (Mca) is a fluorescent donor with excitation wavelength at 320 nm and emission at 405 nm and 2,4-Dinitrophenyl (Dnp) is a proprietary quencher acceptor. […] Upon cleavage by BACE1, the fluorophore Mca is separated from the quenching group Dnp, restoring the full fluorescence yield of the donor. The increase in fluorescence is linearly related to the rate of proteolysis.
Briefly in a 384-well format recombinant BACE1 protein in a final concentration of 0.04 μg/ml is incubated for 450 minutes at room temperature with 20 μM substrate in incubation buffer (50 mM Citrate buffer pH 5.0, 0.05% PEG) in the presence of compound or DMSO. Next the amount of proteolysis is directly measured by fluorescence measurement (excitation at 320 nm and emission at 405 nm) at different incubation times (0, 30, 60, 90, 120 and 450 min). For every experiment a time curve (every 30 min between 0 min and 120 min) is used to determine the time where we find the lowest basal signal of the high control. The signal at this time (Tx) is used to subtract from the signal at 450 min. Results are expressed in RFU, as difference between T450 and Tx.
(§2) A best-fit curve is fitted by a minimum sum of squares method to the plot of % Controlmin versus compound concentration. From this an IC50 value (inhibitory concentration causing 50% inhibition of activity) can be obtained. • LC=Median of the low control values=Low control: Reaction without enzyme • HC=Median of the High control values=High Control: Reaction with enzyme
(§3) % Effect=100−[(sample−LC)/(HC−LC)*100]
(§4) % Control=(sample/HC)*100
(§5) % Controlmin=(sample−LC)/(HC−LC)*100

[2] = target: T2, BACE2 (Homo sapiens, UniProt Q9Y5Z0); assay: BACE2 biochemical FRET based assay; details: recombinant BACE2 0.4 μg/ml, 10 μM substrate, 450 min, pH 5.0; for IC50: read-out: BIOCHEMICAL FRET BASED ASSAY pIC50 (converted)
T2 construct: recombinant BACE2 protein in a final concentration of 0.4 μg/ml
T2 sequence (Q9Y5Z0 63-518): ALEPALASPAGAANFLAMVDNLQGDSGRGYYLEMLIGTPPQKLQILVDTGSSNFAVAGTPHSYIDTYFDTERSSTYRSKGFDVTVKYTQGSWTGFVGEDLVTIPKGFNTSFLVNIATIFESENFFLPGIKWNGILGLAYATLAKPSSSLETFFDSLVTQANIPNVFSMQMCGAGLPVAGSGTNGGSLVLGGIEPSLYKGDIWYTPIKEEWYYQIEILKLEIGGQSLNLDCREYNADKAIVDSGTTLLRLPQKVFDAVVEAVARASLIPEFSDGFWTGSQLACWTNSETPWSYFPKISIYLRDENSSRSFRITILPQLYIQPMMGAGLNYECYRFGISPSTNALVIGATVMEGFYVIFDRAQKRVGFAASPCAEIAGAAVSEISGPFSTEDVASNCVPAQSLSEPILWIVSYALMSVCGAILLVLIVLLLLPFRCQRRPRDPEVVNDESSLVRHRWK
Source text: as §1, with “assay” for “assay is an APP derived 13 amino acids peptide that”, “the beta-secretase,” for “BACE1,”
Briefly in a 384-well format recombinant BACE2 protein in a final concentration of 0.4 μg/ml is incubated for 450 minutes at room temperature with 10 μM substrate in incubation buffer (50 mM Citrate buffer pH 5.0, 0.05% PEG, no DMSO) in the absence or presence of compound. Next the amount of proteolysis is directly measured by fluorescence measurement at T=0 and T=450 (excitation at 320 nm and emission at 405 nm). Results are expressed in RFU (Relative Fluorescence Units), as difference between T450 and TO.
as §2, §3, §4, §5

[3] = tested on: Abeta 1-42 produced and secreted by SKNBE2 cells expressing hAPP695; assay: Cellular αLisa assay in SKNBE2 cells, Abeta 1-42; assay type: cell-based, human; details: SKNBE2 cells expressing hAPP695, 18 hours incubation; for IC50: Homo sapiens, SKNBE2, 18 h, read-out: CELLULAR αLISA ASSAY IN SKNBE2 CELLS ABETA 42 PIC50 (converted)
Description: In two αLisa assays the levels of Abeta total and Abeta 1-42 produced and secreted into the medium of human neuroblastoma SKNBE2 cells are quantified. The assay is based on the human neuroblastoma SKNBE2 expressing the wild type Amyloid Precursor Protein (hAPP695). The compounds are diluted and added to these cells, incubated for 18 hours and then measurements of Abeta 1-42 and Abeta total are taken. Abeta total and Abeta 1-42 are measured by sandwich αLisa. αLisa is a sandwich assay using biotinylated antibody AbN/25 attached to streptavidin coated beads and antibody Ab4G8 or cAb42/26 conjugated acceptor beads for the detection of Abeta total and Abeta 1-42 respectively. In the presence of Abeta total or Abeta 1-42, the beads come into close proximity. The excitation of the donor beads provokes the release of singlet oxygen molecules that trigger a cascade of energy transfer in the acceptor beads, resulting in light emission. Light emission is measured after 1 hour incubation (excitation at […] and emission at 615 nm).
as §2, with “cells preincubated” for “Reaction”, “compound, without biotinylated Ab in the αLisa” for “enzyme”, “cells preincubated without compound” for “Reaction with enzyme”
as §3, §4, §5

T1 sequence (P56817 46-501): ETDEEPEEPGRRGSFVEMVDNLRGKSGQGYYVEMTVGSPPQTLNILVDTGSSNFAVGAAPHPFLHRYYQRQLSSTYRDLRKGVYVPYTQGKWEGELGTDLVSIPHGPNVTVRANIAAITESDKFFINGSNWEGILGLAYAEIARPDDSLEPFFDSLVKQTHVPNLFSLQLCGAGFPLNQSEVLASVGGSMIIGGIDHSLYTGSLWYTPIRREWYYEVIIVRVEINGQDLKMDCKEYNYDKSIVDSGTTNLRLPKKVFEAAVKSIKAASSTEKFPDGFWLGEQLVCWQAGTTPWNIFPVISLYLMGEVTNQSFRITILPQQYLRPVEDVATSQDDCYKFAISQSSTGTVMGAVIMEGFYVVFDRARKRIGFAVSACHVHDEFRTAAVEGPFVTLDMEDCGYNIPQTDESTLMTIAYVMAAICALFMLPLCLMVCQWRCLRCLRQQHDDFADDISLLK

Row | IC50 [1] | IC50 [2] | IC50 [3] | BIOCHEMICAL FRET BASED ASSAY pIC50 [1] | BIOCHEMICAL FRET BASED ASSAY pIC50 [2] | Compound | CELLULAR αLISA ASSAY IN SKNBE2 CELLS ABETA 42 PIC50 [3]
1 | 0.166 µM | 0.331 µM | 0.186 µM | – | – | CCOc1nccc2c1CC1(c3ccc(F)cc3F)N=C(N)SCC1C2 (racemic) [Compound 4] | –
2 | 0.234 µM | 0.219 µM | 0.2 µM | – | – | COc1nccc2c1CC1(c3cc(Br)c(F)cc3F)N=C(N)SCC1C2 (racemic) [Compound 6] | –
3 | 0.145 µM | 0.155 µM | 0.0708 µM | – | – | COc1nccc2c1CC1(c3ccc(Cl)cc3F)N=C(N)SCC1C2 (racemic) [Compound 7] | –
4 | 0.219 µM | 0.537 µM | 0.135 µM | – | – | COc1nccc2c1CC1(c3cc([N+](=O)[O-])c(F)cc3F)N=C(N)SCC1C2 (racemic) [Compound 8] | –
5 | 0.132 µM | 0.219 µM | 0.0209 µM | – | – | COc1nccc2c1CC1(c3cc(C#N)ccc3F)N=C(N)SCC1C2 (racemic) [Compound 9] | –
6 | 0.0355 µM | 0.457 µM | 0.00851 µM | – | – | COc1nccc2c1CC1(c3cc(-c4cncnc4)ccc3F)N=C(N)SCC1C2 (racemic) [Compound 10] | –
7 | 0.0219 µM | 0.219 µM | 0.00295 µM | – | – | COc1nccc2c1CC1(c3cc(-c4cncnc4)c(F)cc3F)N=C(N)SCC1C2 (racemic) [Compound 11] | –
8 | 0.0912 µM | 0.251 µM | 0.0224 µM | – | – | COc1nccc2c1CC1(c3cc(-c4cncc(C#N)c4)ccc3F)N=C(N)SCC1C2 (racemic) [Compound 12] | –
9 | 0.0708 µM | 0.0398 µM | 0.00145 µM | – | – | COCC(C)NCc1ccc(F)c(C23Cc4c(ccnc4OC)CC2CSC(N)=N3)c1 (racemic) [Compound 13] | –
10 | 0.0302 µM | 0.115 µM | 0.0174 µM | – | – | COc1nccc2c1CC1(c3cc4c(cc3F)OCC(=O)N4)N=C(N)SCC1C2 (racemic) [Compound 15] | –
11 | 0.162 µM | 0.282 µM | 0.417 µM | – | – | COc1ncc(Br)c2c1CC1(c3cc(Br)c(F)cc3F)N=C(N)SCC1C2 (racemic) [Compound 19] | –
12 | 0.0251 µM | 0.479 µM | 0.0427 µM | – | – | COc1ncc(-c2cnccc2C)c2c1CC1(c3cc(O)ccc3F)N=C(N)SCC1C2 (racemic) [Compound 26] | –
13 | 0.0117 µM | 3.98 µM | 0.00389 µM | – | – | COc1ncc(-c2cnccc2C)c2c1C[C@]1(c3cc(-c4cncnc4)ccc3F)N=C(N)SC[C@@H]1C2 (racemic) [Compound 27] | –
14 | 0.692 µM | 1.15 µM | 0.17 µM | – | – | COc1nccc2c1C[C@]1(c3ccc(F)cc3F)N=C(N)OC[C@@H]1C2 (racemic) [Compound 30] | –
15 | 0.0692 µM | 0.178 µM | 0.00891 µM | – | – | COc1ncc(-c2cccnc2)c2c1C[C@]1(c3ccc(F)cc3F)N=C(N)OC[C@@H]1C2 (racemic) [Compound 31] | –
16 | 0.0501 µM | 1.12 µM | 0.00724 µM | – | – | COc1ncc(-c2ccncc2C)c2c1CC1(c3ccc(F)cc3F)N=C(N)OCC1C2 (racemic) [Compound 32] | –
17 | 1.07 µM | 0.501 µM | – | – | – | COCC(=O)Nc1cc(C23Cc4c(ccnc4OC)CC2CSC(N)=N3)c(F)cc1F (single isomer, unassigned) [Compound 198] | 6.58
18 | 0.0162 µM | 0.00708 µM | – | – | – | COCC(=O)Nc1cc(C23Cc4c(ccnc4OC)CC2CSC(N)=N3)c(F)cc1F (single isomer, unassigned) [Compound 199] | 8.36
19 | 0.0427 µM | 0.123 µM | 0.017 µM | – | – | COc1nccc2c1C[C@]1(c3cc(-c4cncc(C#N)c4)ccc3F)N=C(N)SC[C@@H]1C2 [Compound 37] | –
20 | 0.0155 µM | 0.229 µM | 0.00355 µM | – | – | COc1nccc2c1C[C@]1(c3cc(-c4cncnc4)ccc3F)N=C(N)SC[C@@H]1C2 [Compound 38] | –
21 | 0.0275 µM | 0.0295 µM | 0.155 µM | – | – | COc1ncc(Br)c2c1C[C@]1(c3cc(O)ccc3F)N=C(N)SC[C@@H]1C2 [Compound 42] | –
22 | – | – | – | 8.64 | 8.44 | COc1ncc(C2=CCOCC2)c2c1C[C@]1(c3ccc(F)cc3F)N=C(N)SC[C@@H]1C2 [Compound 46] | 9.21
23 | 0.209 µM | 2.57 µM | 0.0138 µM | – | – | COc1ccncc1-c1cnc(OC)c2c1C[C@H]1CSC(N)=N[C@@]1(c1ccc(F)cc1F)C2 [Compound 103] | –
24 | 0.00776 µM | – | 0.00132 µM | – | – | COc1ncc(-c2cncc(C)c2)c2c1C[C@]1(c3ccc(F)cc3F)N=C(N)SC[C@@H]1C2 [Compound 108] | –
25 | 0.0148 µM | 0.0148 µM | 0.0186 µM | – | – | COc1nccc2c1C[C@]1(c3cc(OCC4CC4)ccc3F)N=C(N)SC[C@@H]1C2 [Compound 136] | –
26 | > 10 µM | > 10 µM | 5.37 µM | – | – | COc1nccc2c1C[C@@]1(c3cc(OCC4CC4)ccc3F)N=C(N)SC[C@H]1C2 [Compound 184] | –
27 | > 10 µM | > 10 µM | > 8.91 µM | – | – | COc1nccc2c1C[C@@]1(c3cc(-c4cncnc4)ccc3F)N=C(N)SC[C@H]1C2 [Compound 185] | –
28 | > 10 µM | > 10 µM | > 8.91 µM | – | – | COc1nccc2c1C[C@@]1(c3cc(-c4cncc(C#N)c4)ccc3F)N=C(N)SC[C@H]1C2 [Compound 186] | –
29 | > 10 µM | > 10 µM | 6.92 µM | – | – | COc1ncc(Br)c2c1C[C@@]1(c3cc(O)ccc3F)N=C(N)SC[C@H]1C2 [Compound 189] | –
